Several values for one entry are separate records, joined by “and”; a condition that tells them apart may be missing. Equal values may be shown once. Read-outs that look alike come from different tables or passages of the source.
Tests used:
Assay in all cases: SafetyScreen87 panel
[1] = molecular target: T1, 5-HT1A (h) (agonist radioligand) (Homo sapiens, UniProt P08908); settings: 1.0E-06 M; mean; read-out: % Inhibition of Control Specific Binding (1st, 2nd, Mean)
T1 construct: purchased DiscoverX KINOMEscan scanEDGE; Eurofins Cerep SafetyScreen87
Procedure: (§1) The possibility of KDS12025 on kinase off-target, the KINOMEscan panel of scanEDGE assay was conducted in DiscoverX (CA, USA) using a site-directed competition binding with the test compounds. The assay results are given in Supplementary Table 4 and experimental information is available on the DiscoverX web page (www.discoverx.com). Moreover, the Delta SafetyScreen87 panel assay was conducted in Eurofins Discovery (Cerep, France). The assay results are given in Supplementary Table 5 and experimental information is available on the DiscoverX web page (https://www.eurofinsdiscoveryservices.com).

[2] = molecular target: T2, 5-HT3 (h) (antagonist radioligand) (Homo sapiens, UniProt P46098); settings: 1.0E-06 M; read-out: % Inhibition of Control Specific Binding (1st, 2nd, Mean)
T2 construct: purchased DiscoverX KINOMEscan scanEDGE; Eurofins Cerep SafetyScreen87
Procedure: as §1

[3] = molecular target: T3, A1 (h) (antagonist radioligand) (Homo sapiens, UniProt P30542); settings: 1.0E-06 M, read-out: % Inhibition of Control Specific Binding (1st, 2nd, Mean)
T3 construct: purchased DiscoverX KINOMEscan scanEDGE; Eurofins Cerep SafetyScreen87
Procedure: as §1

[4] = tested on: AMPA (agonist radioligand); settings: 1.0E-06 M, read-out: % Inhibition of Control Specific Binding (1st, 2nd, Mean)
Procedure: as §1

[5] = molecular target: T4, AR(h) (agonist radioligand) (Homo sapiens, UniProt P10275, T878A); settings: 1.0E-06 M; mean; read-out: % Inhibition of Control Specific Binding (1st, 2nd, Mean)
T4 construct: purchased DiscoverX KINOMEscan scanEDGE; Eurofins Cerep SafetyScreen87
Procedure: as §1

[6] = molecular target: T5, B2 (h) (agonist radioligand) (Homo sapiens, UniProt P30411)
T5 construct: purchased DiscoverX KINOMEscan scanEDGE; Eurofins Cerep SafetyScreen87
Procedure: as §1

[7] = tested on: BZD (central) (agonist radioligand); settings: 1.0E-06 M, read-out: % Inhibition of Control Specific Binding (1st, 2nd, Mean)
Procedure: as §1

[8] = molecular target: T6, CB2 (h) (agonist radioligand) (Homo sapiens, UniProt P34972); settings: 1.0E-06 M, read-out: % Inhibition of Control Specific Binding (1st, 2nd, Mean)
T6 construct: purchased DiscoverX KINOMEscan scanEDGE; Eurofins Cerep SafetyScreen87
Procedure: as §1

[9] = molecular target: T7, CCR1 (h) (agonist radioligand) (Homo sapiens, UniProt P32246)
T7 construct: purchased DiscoverX KINOMEscan scanEDGE; Eurofins Cerep SafetyScreen87
Procedure: as §1

[10] = molecular target: T8, CXCR2 (IL-8B) (h) (agonist radioligand) (Homo sapiens, UniProt P25025)
T8 construct: purchased DiscoverX KINOMEscan scanEDGE; Eurofins Cerep SafetyScreen87
Procedure: as §1

[11] = tested on: Ca2+ channel (L, dihydropyridine site) (antagonist radioligand); settings: 1.0E-06 M, read-out: % Inhibition of Control Specific Binding (1st, 2nd, Mean)
Procedure: as §1

[12] = tested on: Ca2+ channel (L, verapamil site) (phenylalkylamine) (antagonist radioligand); settings: 1.0E-06 M, read-out: % Inhibition of Control Specific Binding (1st, 2nd, Mean)
Procedure: as §1

[13] = molecular target: T9, Ca2+ channel (N) (antagonist radioligand) (Rattus norvegicus, UniProt Q02294)
T9 construct: Eurofins Discovery (Cerep, France) SafetyScreen87 panel
Procedure: as §1

[14] = molecular target: T10, D1 (h) (antagonist radioligand) (Homo sapiens, UniProt P21728); settings: 1.0E-06 M, read-out: % Inhibition of Control Specific Binding (1st, 2nd, Mean)
T10 construct: purchased DiscoverX KINOMEscan scanEDGE; Eurofins Cerep SafetyScreen87
Procedure: as §1

[15] = molecular target: T11, D2L (h) (antagonist radioligand) (Homo sapiens, UniProt P14416); settings: 1.0E-06 M, read-out: % Inhibition of Control Specific Binding (1st, 2nd, Mean)
T11 construct: purchased DiscoverX KINOMEscan scanEDGE; Eurofins Cerep SafetyScreen87
Procedure: as §1

[16] = molecular target: T12, Estrogen ER alpha (h) (agonist radioligand) (Homo sapiens, UniProt P03372); settings: 1.0E-06 M; mean; read-out: % Inhibition of Control Specific Binding (1st, 2nd, Mean)
T12 construct: purchased DiscoverX KINOMEscan scanEDGE; Eurofins Cerep SafetyScreen87
Procedure: as §1

[17] = molecular target: T13, GABAA1 (h) (alpha 1,beta 2,gamma 2) (agonist radioligand) (Homo sapiens, UniProt P14867+P47870); settings: 1.0E-06 M, read-out: % Inhibition of Control Specific Binding (1st, 2nd, Mean)
T13 construct: purchased DiscoverX KINOMEscan scanEDGE; Eurofins Cerep SafetyScreen87
Procedure: as §1

[18] = molecular target: T14, H1 (h) (antagonist radioligand) (Homo sapiens, UniProt P35367); settings: 1.0E-06 M; mean; read-out: % Inhibition of Control Specific Binding (1st, 2nd, Mean)
T14 construct: purchased DiscoverX KINOMEscan scanEDGE; Eurofins Cerep SafetyScreen87
Procedure: as §1

[19] = tested on: KV channel (antagonist radioligand); settings: 1.0E-06 M, read-out: % Inhibition of Control Specific Binding (1st, 2nd, Mean)
Procedure: as §1

[20] = molecular target: T15, M2 (h) (antagonist radioligand) (Homo sapiens, UniProt P08172); settings: 1.0E-06 M; mean; read-out: % Inhibition of Control Specific Binding (1st, 2nd, Mean)
T15 construct: purchased DiscoverX KINOMEscan scanEDGE; Eurofins Cerep SafetyScreen87
Procedure: as §1

[21] = molecular target: T16, MC1 (agonist radioligand) (Mus musculus, UniProt Q01727); settings: 1.0E-06 M; mean; read-out: % Inhibition of Control Specific Binding (1st, 2nd, Mean)
T16 construct: purchased DiscoverX KINOMEscan scanEDGE; Eurofins Cerep SafetyScreen87
Procedure: as §1

[22] = molecular target: T17, N muscle-type (h) (antagonist radioligand) (Homo sapiens, UniProt P02708+P07510+Q07001); settings: 1.0E-06 M; mean; read-out: % Inhibition of Control Specific Binding (1st, 2nd, Mean)
T17 construct: purchased DiscoverX KINOMEscan scanEDGE; Eurofins Cerep SafetyScreen87
Procedure: as §1

[23] = tested on: NMDA (antagonist radioligand); settings: 1.0E-06 M, read-out: % Inhibition of Control Specific Binding (1st, 2nd, Mean)
Procedure: as §1

[24] = tested on: Na+ channel (site 2) (antagonist radioligand); settings: 1.0E-06 M, read-out: % Inhibition of Control Specific Binding (1st, 2nd, Mean)
Procedure: as §1

[25] = molecular target: T18, PAF (h) (agonist radioligand) (Homo sapiens, UniProt P25105); settings: 1.0E-06 M; read-out: % Inhibition of Control Specific Binding (1st, 2nd, Mean)
T18 construct: purchased DiscoverX KINOMEscan scanEDGE; Eurofins Cerep SafetyScreen87
Procedure: as §1

[26] = tested on: PCP (antagonist radioligand); settings: 1.0E-06 M; mean; read-out: % Inhibition of Control Specific Binding (1st, 2nd, Mean)
Procedure: as §1

[27] = molecular target: T19, RARalpha (h) (agonist radioligand) (Homo sapiens, UniProt P10276); settings: 1.0E-06 M; read-out: % Inhibition of Control Specific Binding (1st, 2nd, Mean)
T19 construct: purchased DiscoverX KINOMEscan scanEDGE; Eurofins Cerep SafetyScreen87
Procedure: as §1

[28] = molecular target: T20, beta 2 (h) (antagonist radioligand) (Homo sapiens, UniProt P07550)
T20 construct: purchased DiscoverX KINOMEscan scanEDGE; Eurofins Cerep SafetyScreen87
Procedure: as §1

[29] = molecular target: T21, kappa (h) (KOP) (agonist radioligand) (Homo sapiens, UniProt P41145); settings: 1.0E-06 M; mean; read-out: % Inhibition of Control Specific Binding (1st, 2nd, Mean)
T21 construct: purchased DiscoverX KINOMEscan scanEDGE; Eurofins Cerep SafetyScreen87
Procedure: as §1

[30] = molecular target: T22, norepinephrine transporter (h) (antagonist radioligand) (Homo sapiens, UniProt P23975); settings: 1.0E-06 M, read-out: % Inhibition of Control Specific Binding (1st, 2nd, Mean)
T22 construct: Eurofins Discovery (Cerep, France) SafetyScreen87 panel
Procedure: as §1

[31] = 1.0E-06 M; read-out: % Inhibition of Control Specific Binding (1st, 2nd, Mean)
[32] = read-out: % Inhibition of Control Specific Binding (1st, 2nd, Mean); 1.0E-06 M

T6 sequence (P34972 whole entry): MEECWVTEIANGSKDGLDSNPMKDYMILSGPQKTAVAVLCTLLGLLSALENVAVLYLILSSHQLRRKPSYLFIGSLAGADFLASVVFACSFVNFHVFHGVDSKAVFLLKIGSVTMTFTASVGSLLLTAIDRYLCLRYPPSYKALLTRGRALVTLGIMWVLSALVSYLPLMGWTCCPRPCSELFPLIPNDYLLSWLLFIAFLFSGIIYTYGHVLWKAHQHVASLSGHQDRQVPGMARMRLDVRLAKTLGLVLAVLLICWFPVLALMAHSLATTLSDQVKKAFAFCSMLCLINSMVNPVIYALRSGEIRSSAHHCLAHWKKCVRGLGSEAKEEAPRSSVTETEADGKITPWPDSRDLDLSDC
T19 sequence (P10276 whole entry): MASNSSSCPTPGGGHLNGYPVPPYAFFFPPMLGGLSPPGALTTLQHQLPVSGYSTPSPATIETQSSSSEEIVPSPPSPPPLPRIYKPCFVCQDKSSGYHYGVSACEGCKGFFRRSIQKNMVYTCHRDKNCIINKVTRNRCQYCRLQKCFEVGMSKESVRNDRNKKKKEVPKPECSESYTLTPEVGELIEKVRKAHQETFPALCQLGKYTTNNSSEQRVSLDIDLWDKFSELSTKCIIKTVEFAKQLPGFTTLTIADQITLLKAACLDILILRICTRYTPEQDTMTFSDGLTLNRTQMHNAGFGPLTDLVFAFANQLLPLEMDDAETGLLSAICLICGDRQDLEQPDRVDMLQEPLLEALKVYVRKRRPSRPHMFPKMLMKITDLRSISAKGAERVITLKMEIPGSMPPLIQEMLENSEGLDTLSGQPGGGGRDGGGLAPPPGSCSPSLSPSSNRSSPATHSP
T3 sequence (P30542 whole entry): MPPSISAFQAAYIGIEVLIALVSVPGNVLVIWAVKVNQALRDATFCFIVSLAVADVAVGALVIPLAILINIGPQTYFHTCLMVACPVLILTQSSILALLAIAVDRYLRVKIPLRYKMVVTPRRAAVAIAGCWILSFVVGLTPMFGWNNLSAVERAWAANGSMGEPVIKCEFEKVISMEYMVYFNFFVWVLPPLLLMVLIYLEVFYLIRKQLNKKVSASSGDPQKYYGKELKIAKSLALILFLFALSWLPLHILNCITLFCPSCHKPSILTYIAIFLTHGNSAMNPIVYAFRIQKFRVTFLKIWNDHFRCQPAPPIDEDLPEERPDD
T10 sequence (P21728 whole entry): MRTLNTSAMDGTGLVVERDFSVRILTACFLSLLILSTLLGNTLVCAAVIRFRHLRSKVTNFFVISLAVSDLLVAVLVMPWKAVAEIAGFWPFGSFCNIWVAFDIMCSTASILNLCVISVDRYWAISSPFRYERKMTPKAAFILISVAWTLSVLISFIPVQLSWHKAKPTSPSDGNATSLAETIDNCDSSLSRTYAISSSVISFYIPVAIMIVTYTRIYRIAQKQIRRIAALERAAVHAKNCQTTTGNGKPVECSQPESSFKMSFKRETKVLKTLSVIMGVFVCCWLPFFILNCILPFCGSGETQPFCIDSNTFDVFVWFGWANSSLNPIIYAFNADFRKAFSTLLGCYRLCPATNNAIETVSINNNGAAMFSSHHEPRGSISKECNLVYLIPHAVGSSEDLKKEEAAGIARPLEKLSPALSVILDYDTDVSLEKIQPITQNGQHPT
T11 sequence (P14416 whole entry): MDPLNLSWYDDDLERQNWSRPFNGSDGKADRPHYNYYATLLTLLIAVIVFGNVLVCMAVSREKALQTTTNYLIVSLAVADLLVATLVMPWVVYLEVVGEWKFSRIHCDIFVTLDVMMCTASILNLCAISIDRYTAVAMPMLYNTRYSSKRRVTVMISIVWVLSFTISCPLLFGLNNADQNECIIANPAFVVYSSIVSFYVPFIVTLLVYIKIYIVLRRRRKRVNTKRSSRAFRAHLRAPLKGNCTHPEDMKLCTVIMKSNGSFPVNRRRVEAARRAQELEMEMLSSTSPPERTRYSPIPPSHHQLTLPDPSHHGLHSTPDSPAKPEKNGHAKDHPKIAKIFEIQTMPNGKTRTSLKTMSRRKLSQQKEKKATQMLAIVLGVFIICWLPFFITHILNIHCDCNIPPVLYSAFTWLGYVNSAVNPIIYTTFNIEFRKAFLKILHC
T13 sequence (P14867 28-456): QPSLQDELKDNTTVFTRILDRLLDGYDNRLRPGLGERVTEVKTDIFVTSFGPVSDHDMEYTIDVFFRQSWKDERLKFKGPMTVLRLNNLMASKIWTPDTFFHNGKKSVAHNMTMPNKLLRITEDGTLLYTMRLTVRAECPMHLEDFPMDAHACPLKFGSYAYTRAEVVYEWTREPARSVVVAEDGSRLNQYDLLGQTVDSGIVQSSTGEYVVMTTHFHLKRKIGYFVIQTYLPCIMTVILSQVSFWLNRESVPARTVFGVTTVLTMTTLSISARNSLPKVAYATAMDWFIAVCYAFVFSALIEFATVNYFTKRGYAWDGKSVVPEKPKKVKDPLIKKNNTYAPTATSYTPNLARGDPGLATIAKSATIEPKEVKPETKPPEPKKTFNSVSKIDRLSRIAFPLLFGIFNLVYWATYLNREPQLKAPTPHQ
T13 sequence (P47870 25-512 limits assumed): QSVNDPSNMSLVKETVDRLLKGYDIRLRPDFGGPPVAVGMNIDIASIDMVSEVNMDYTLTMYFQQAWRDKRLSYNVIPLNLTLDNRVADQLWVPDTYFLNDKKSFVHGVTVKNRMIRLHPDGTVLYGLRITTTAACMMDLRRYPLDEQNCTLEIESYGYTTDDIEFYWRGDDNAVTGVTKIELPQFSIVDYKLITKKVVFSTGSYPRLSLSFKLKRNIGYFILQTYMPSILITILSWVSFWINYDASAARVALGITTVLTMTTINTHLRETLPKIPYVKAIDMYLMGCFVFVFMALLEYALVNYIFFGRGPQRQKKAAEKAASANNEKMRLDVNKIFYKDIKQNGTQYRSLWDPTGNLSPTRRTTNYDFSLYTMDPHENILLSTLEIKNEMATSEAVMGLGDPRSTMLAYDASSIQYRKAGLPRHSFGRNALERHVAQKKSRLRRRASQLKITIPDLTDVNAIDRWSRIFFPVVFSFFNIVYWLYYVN
T13 sequence (P18507 40-467 partner limits assumed): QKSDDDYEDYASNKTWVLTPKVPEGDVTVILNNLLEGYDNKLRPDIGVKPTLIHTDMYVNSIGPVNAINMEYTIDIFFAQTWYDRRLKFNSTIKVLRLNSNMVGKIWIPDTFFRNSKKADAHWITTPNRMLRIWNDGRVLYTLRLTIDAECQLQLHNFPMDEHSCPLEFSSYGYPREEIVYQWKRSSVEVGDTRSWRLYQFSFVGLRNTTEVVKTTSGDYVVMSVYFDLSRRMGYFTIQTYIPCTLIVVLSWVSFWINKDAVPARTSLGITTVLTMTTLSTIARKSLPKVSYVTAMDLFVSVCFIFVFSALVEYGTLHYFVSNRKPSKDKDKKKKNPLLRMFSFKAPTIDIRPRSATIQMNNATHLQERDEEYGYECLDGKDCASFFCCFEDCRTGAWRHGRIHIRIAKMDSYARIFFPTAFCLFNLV
T20 sequence (P07550 whole entry): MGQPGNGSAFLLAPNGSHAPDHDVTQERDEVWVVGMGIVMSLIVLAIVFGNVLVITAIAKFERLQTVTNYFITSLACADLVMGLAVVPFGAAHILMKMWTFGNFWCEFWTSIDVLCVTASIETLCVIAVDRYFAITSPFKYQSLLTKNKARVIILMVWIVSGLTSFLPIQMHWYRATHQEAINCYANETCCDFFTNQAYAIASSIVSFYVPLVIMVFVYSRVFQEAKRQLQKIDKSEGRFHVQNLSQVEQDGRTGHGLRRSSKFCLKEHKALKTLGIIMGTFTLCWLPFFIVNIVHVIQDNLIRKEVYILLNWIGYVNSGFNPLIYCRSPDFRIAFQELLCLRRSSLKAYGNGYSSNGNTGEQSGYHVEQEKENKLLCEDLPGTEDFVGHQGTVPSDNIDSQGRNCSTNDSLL
T7 sequence (P32246 whole entry): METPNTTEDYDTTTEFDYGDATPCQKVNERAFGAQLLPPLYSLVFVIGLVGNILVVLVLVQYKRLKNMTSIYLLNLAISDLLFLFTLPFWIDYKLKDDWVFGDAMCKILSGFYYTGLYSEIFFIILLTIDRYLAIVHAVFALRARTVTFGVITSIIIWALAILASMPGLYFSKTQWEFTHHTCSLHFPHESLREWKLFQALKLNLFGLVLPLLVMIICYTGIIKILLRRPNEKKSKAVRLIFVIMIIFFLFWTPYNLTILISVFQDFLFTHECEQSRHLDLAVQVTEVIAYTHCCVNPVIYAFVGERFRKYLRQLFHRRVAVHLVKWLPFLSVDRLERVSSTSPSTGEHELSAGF
T8 sequence (P25025 whole entry): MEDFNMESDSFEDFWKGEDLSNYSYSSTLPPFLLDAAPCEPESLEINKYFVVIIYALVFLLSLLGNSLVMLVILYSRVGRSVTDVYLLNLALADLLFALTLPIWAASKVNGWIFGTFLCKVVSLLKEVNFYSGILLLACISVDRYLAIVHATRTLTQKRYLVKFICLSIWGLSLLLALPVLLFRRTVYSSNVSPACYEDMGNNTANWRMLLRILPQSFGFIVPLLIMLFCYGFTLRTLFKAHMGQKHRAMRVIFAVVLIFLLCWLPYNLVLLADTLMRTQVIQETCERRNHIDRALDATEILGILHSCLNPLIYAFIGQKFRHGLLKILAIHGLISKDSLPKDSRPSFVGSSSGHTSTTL
T18 sequence (P25105 whole entry): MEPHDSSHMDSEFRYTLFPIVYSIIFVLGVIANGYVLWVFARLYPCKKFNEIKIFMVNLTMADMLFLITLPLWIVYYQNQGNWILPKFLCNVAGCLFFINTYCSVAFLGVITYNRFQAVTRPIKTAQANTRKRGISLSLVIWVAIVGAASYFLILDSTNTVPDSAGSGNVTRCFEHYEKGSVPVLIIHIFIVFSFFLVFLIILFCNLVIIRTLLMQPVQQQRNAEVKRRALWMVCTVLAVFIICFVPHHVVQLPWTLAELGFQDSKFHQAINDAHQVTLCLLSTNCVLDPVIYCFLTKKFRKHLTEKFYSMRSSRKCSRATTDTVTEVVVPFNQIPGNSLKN

SMILES: CNc1ccc(NCCc2ccccc2OC)cc1.Cl [KDS12025, N^1-(2-methoxyphenethyl)-N^4-methylbenzene-1,4-diamine hydrochloride salt]
- activity [1]: 62.4%
- activity [2]: 91.4% and 100%
- activity ([3]; mean): 114%
- activity [3]: 115% and 114%
- activity ([4]; mean): 100%
- activity [4]: 98% and 103%
- activity [5]: 90.9%
- activity [6, 31]: 99.4%
- activity [6, 32]: 104%
- activity ([7]; mean): 99.5%
- activity [7]: 102% and 96.6%
- activity ([8]; mean): 84.6%
- activity [8]: 78.4% and 90.8%
- activity [9, 31]: 90.4%
- activity [9, 32]: 88.2%
- activity [10, 31]: 83.3%
- activity [10, 32]: 91.8%
- activity ([11]; mean): 129%
- activity [11]: 138% and 121%
- activity ([12]; mean): 98%
- activity [12]: 101% and 95.5%
- activity [13, 31]: 118%
- activity [13, 32]: 104%
- activity ([14]; mean): 97.5%
- activity [14]: 91.1% and 104%
- activity ([15]; mean): 84%
- activity [15]: 74.8% and 93.2%
- activity [16]: 95.3%
- activity ([17]; mean): 95.1%
- activity [17]: 92.4% and 97.8%
- activity [18]: 88.2%
- activity ([19]; mean): 96.5%
- activity [19]: 85.3% and 108%
- activity [20]: 107%
- activity [21]: 109%
- activity [22]: 74.3%
- activity ([23]; mean): 98.7%
- activity [23]: 97.8% and 99.6%
- activity ([24]; mean): 74.5%
- activity [24]: 83.6% and 65.5%
- activity [25]: 106%
- activity [26]: 92%
- activity [27]: 105%
- activity [28, 31]: 104%
- activity [28, 32]: 96.8%
- activity [29]: 82.7%
- activity ([30]; mean): 93.3%
- activity [30]: 89.5%

— PMC12373846, “Hemoglobin as a pseudoperoxidase and drug target for oxidative stress-related diseases” (Signal Transduction and Targeted Therapy, 2025)
